Test results published in ChEMBL document CHEMBL3400105, “Discovery of novel pyrazolopyrimidinone analogs as potent inhibitors of phosphodiesterase type-5” (Bioorg Med Chem, 2015).
Converted amounts (≈) assume the structure as drawn.

Key:
[1] = molecular target: T1, cGMP-specific 3',5'-cyclic phosphodiesterase (Homo sapiens, UniProt O76074)
[2] = Lipophilicity, log P of the compound; format: physicochemical; details: octanol/water
[3] = Passive permeability across apical to basolateral side in human Caco2 cells; format: ADME, cell-based
[4] = molecular target: High affinity 3',5'-cyclic-AMP phosphodiesterase 7A (Homo sapiens, UniProt Q13946); assay: Inhibition of GST-tagged recombinant human PDE7A1
[5] = tested on: Oryctolagus cuniculus; assay: Induction of penile erection in conscious rabbit model assessed as area under curve of length of uncovered penile mucosa at 3 mg/kg, iv into ear vain
[6] = Passive permeability across basolateral to apical side in human Caco2 cells; format: ADME, cell-based; details: Caco-2, read-out: permeability
[7] = Dissociation constant, pKa of the compound; format: physicochemical
[8] = Fraction unbound in whole blood (unknown origin); format: ADME, tissue-based
[9] = Lipophilicity, log D of the compound; format: physicochemical; details: octanol/water
[10] = Metabolic stability in mouse liver microsomes assessed as metabolized drug; format: ADME; details: read-out: Drug metabolism
[11] = molecular target: Dual specificity calcium/calmodulin-dependent 3',5'-cyclic nucleotide phosphodiesterase 1A (Homo sapiens, UniProt P54750); assay: Inhibition of PDE1A1 (unknown origin) using fluorescently labeled cAMP substrate by fluorescence polarization assay
[12] = Plasma protein binding (unknown origin); format: ADME, cell-free; details: read-out: PPB (converted)
[13] = molecular target: Cone cGMP-specific 3',5'-cyclic phosphodiesterase subunit alpha' (Homo sapiens, UniProt P51160); assay: Inhibition of PDE6C (unknown origin)
[14] = AUC (0 to infinity) in Balbc mouse at 1 mg/kg, ip; format: ADME, organism-based; parameters: time infinity, dose 1 mg/kg, route intraperitoneal; details: plasma
[15] = molecular target: T1, cGMP-specific 3',5'-cyclic phosphodiesterase; assay: Inhibition of PDE5A1 (unknown origin)
[16] = Half life in Swiss mouse at 10 mg/kg, po; format: ADME, organism-based; parameters: dose 10 mg/kg, route oral; details: in vivo
[17] = molecular target: High affinity cGMP-specific 3',5'-cyclic phosphodiesterase 9A (Homo sapiens, UniProt O76083); assay: Inhibition of GST-tagged recombinant human PDE9A2
[18] = molecular target: CYP2C9 (Homo sapiens, UniProt P11712); assay: Inhibition of CYP2C9 (unknown origin) at 10 uM; format: ADME
[19] = Solubility in PBS; format: physicochemical
[20] = AUC (0 to infinity) in Balbc mouse at 1 mg/kg, iv; format: ADME, organism-based; parameters: time infinity, dose 1 mg/kg, route intravenous; details: plasma
[21] = Cmax in Balbc mouse at 1 mg/kg, iv; format: ADME, organism-based; parameters: dose 1 mg/kg, route intravenous; details: in vivo
[22] = Solubility in simulated intestinal fluid; format: ADME
[23] = molecular target: cAMP and cAMP-inhibited cGMP 3',5'-cyclic phosphodiesterase 10A (Homo sapiens, UniProt Q9Y233); assay: Inhibition of PDE10A1 (unknown origin) using fluorescently labeled cAMP substrate by fluorescence polarization assay
[24] = AUC (0 to infinity) in Swiss mouse at 10 mg/kg, po; format: ADME, organism-based; parameters: time infinity, dose 10 mg/kg, route oral; details: plasma
[25] = molecular target: cGMP-dependent 3',5'-cyclic phosphodiesterase (Homo sapiens, UniProt O00408); assay: Inhibition of PDE2A1 (unknown origin) using fluorescently labeled cAMP substrate by fluorescence polarization assay
[26] = AUC (0 to time) in Balbc mouse at 1 mg/kg, ip; format: ADME, organism-based; parameters: dose 1 mg/kg, route intraperitoneal; details: plasma
[27] = AUC (0 to time) in Swiss mouse at 10 mg/kg, po; format: ADME, organism-based; parameters: dose 10 mg/kg, route oral; details: plasma
[28] = molecular target: 3',5'-cyclic-AMP phosphodiesterase 4A (Homo sapiens, UniProt P27815); assay: Inhibition of PDE4A1 (unknown origin) using fluorescently labeled cAMP substrate by fluorescence polarization assay
[29] = molecular target: cGMP-inhibited 3',5'-cyclic phosphodiesterase 3A (Homo sapiens, UniProt Q14432); assay: Inhibition of PDE3A (unknown origin) using fluorescently labeled cAMP substrate by fluorescence polarization assay
[30] = Tmax in Balbc mouse at 1 mg/kg, ip; format: ADME, organism-based; parameters: dose 1 mg/kg, route intraperitoneal; details: in vivo
[31] = Apparent oral clearance in Balbc mouse at 1 mg/kg, iv; format: ADME, organism-based; parameters: dose 1 mg/kg, route oral; details: in vivo
[32] = Tmax in Swiss mouse at 10 mg/kg, po; format: ADME, organism-based; parameters: dose 10 mg/kg, route oral; details: in vivo
[33] = Cmax in Swiss mouse at 10 mg/kg, po; format: ADME, organism-based; parameters: dose 10 mg/kg, route oral; details: in vivo
[34] = molecular target: CYP3A4 (Homo sapiens, UniProt P08684); assay: Inhibition of CYP3A4 (unknown origin) at 10 uM; format: ADME
[35] = Solubility in simulated gastric fluid; format: ADME, Stomach
[36] = Apparent oral volume of distribution in Balbc mouse at 1 mg/kg, iv; format: ADME, organism-based; parameters: dose 1 mg/kg, route oral; details: in vivo
[37] = Apparent oral volume of distribution in Swiss mouse at 10 mg/kg, po; format: ADME, organism-based; parameters: dose 10 mg/kg, route oral; details: in vivo
[38] = molecular target: High affinity cAMP-specific and IBMX-insensitive 3',5'-cyclic phosphodiesterase 8A (Homo sapiens, UniProt O60658); assay: Inhibition of GST-tagged recombinant human PDE8A1
[39] = molecular target: Dual 3',5'-cyclic-AMP and -GMP phosphodiesterase 11A (Homo sapiens, UniProt Q9HCR9); assay: Inhibition of GST-tagged recombinant human PDE11A4
[40] = Apparent oral clearance in Swiss mouse at 10 mg/kg, po; format: ADME, organism-based; parameters: dose 10 mg/kg, route oral; details: in vivo
[41] = AUC (0 to time) in Balbc mouse at 1 mg/kg, iv; format: ADME, organism-based; parameters: dose 1 mg/kg, route intravenous; details: plasma
[42] = Cmax in Balbc mouse at 1 mg/kg, ip; format: ADME, organism-based; parameters: dose 1 mg/kg, route intraperitoneal; details: in vivo
[43] = in vitro; details: human, Caco-2
[44] = tested on: Plasma; assay: Initial plasma concentration in Swiss mouse at 10 mg/kg, po; format: ADME, organism-based; parameters: dose 10 mg/kg, route oral; details: in vivo
[45] = Solubility in water; format: physicochemical

High affinity 3',5'-cyclic-AMP phosphodiesterase 7A, sequence (Q13946 whole entry): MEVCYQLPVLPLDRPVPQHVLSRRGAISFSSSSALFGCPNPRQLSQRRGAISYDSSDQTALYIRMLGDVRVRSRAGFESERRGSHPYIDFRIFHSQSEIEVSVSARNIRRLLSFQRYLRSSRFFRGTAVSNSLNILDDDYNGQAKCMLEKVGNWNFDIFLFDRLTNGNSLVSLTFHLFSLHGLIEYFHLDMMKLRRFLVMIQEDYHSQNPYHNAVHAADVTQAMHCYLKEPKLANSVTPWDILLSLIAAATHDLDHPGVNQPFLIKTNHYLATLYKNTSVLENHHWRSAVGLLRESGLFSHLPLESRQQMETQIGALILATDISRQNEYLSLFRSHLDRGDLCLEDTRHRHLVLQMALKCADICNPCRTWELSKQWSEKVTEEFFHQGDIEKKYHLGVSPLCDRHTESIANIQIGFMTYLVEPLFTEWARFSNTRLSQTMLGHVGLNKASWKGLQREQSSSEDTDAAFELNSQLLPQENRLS
Dual specificity calcium/calmodulin-dependent 3',5'-cyclic nucleotide phosphodiesterase 1A, sequence (P54750 whole entry): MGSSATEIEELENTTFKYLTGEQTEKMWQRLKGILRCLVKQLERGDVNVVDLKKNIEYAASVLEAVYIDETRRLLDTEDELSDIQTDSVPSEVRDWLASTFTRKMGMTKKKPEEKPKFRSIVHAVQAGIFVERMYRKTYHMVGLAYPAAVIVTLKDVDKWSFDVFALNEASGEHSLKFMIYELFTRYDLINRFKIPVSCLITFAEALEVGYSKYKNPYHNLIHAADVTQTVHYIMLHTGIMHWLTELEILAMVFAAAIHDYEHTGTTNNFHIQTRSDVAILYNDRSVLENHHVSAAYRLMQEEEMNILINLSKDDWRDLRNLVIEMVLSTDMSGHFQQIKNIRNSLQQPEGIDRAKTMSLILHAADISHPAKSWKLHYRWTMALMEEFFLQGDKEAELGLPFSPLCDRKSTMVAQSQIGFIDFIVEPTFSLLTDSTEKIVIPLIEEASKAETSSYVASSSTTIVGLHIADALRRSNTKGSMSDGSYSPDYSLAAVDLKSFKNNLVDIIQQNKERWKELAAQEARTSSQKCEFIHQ
cGMP-inhibited 3',5'-cyclic phosphodiesterase 3A, sequence (Q14432 whole entry): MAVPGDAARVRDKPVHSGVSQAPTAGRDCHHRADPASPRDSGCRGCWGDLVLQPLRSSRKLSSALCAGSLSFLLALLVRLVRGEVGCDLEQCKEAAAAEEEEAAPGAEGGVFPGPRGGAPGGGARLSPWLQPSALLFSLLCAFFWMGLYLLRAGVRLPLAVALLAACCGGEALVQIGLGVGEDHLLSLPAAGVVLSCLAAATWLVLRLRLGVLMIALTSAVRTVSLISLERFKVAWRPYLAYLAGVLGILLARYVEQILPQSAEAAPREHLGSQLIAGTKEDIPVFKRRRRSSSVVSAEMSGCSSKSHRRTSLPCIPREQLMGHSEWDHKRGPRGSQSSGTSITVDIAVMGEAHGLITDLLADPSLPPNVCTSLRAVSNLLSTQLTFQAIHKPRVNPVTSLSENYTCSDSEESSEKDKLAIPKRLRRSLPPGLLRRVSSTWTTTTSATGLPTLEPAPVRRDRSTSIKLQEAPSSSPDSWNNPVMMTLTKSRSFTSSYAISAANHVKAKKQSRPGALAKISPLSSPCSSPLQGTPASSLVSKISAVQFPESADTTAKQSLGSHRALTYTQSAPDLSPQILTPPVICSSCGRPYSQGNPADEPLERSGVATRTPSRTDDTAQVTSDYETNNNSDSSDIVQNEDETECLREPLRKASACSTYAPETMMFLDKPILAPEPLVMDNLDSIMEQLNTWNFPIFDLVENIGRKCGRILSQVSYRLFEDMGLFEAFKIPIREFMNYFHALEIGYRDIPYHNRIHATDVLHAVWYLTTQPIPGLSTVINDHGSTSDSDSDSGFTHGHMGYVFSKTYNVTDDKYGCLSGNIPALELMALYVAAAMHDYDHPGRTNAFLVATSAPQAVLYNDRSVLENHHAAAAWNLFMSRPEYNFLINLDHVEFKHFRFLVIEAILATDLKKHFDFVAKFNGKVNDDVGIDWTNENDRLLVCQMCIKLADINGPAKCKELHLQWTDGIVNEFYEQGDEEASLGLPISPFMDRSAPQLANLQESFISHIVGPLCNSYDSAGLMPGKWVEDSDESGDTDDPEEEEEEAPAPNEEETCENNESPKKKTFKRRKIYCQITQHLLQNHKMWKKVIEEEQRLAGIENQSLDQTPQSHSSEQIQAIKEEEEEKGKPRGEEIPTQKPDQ
Cone cGMP-specific 3',5'-cyclic phosphodiesterase subunit alpha', sequence (P51160 whole entry): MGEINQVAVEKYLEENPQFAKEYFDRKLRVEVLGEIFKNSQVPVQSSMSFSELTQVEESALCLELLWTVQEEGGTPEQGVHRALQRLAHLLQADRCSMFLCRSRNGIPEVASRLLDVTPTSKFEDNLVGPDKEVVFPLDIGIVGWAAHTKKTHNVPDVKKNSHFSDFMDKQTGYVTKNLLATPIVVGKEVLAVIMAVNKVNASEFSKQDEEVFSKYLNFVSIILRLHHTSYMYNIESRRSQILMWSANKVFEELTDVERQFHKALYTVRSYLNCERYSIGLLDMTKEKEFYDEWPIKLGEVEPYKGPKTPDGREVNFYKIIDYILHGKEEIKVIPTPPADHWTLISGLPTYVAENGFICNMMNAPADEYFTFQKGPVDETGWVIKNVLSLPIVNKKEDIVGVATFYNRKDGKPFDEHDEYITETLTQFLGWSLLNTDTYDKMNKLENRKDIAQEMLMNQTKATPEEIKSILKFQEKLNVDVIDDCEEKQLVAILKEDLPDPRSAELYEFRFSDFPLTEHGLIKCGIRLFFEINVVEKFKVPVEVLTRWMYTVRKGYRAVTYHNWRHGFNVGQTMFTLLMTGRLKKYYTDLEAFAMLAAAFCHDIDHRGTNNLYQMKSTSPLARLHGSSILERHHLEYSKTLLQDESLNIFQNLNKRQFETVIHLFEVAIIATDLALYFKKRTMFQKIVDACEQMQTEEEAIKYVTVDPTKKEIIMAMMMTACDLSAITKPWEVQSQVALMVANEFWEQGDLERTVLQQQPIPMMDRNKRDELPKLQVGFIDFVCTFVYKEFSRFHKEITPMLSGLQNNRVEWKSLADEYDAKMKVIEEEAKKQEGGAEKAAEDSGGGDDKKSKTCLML
cAMP and cAMP-inhibited cGMP 3',5'-cyclic phosphodiesterase 10A, sequence (Q9Y233 whole entry): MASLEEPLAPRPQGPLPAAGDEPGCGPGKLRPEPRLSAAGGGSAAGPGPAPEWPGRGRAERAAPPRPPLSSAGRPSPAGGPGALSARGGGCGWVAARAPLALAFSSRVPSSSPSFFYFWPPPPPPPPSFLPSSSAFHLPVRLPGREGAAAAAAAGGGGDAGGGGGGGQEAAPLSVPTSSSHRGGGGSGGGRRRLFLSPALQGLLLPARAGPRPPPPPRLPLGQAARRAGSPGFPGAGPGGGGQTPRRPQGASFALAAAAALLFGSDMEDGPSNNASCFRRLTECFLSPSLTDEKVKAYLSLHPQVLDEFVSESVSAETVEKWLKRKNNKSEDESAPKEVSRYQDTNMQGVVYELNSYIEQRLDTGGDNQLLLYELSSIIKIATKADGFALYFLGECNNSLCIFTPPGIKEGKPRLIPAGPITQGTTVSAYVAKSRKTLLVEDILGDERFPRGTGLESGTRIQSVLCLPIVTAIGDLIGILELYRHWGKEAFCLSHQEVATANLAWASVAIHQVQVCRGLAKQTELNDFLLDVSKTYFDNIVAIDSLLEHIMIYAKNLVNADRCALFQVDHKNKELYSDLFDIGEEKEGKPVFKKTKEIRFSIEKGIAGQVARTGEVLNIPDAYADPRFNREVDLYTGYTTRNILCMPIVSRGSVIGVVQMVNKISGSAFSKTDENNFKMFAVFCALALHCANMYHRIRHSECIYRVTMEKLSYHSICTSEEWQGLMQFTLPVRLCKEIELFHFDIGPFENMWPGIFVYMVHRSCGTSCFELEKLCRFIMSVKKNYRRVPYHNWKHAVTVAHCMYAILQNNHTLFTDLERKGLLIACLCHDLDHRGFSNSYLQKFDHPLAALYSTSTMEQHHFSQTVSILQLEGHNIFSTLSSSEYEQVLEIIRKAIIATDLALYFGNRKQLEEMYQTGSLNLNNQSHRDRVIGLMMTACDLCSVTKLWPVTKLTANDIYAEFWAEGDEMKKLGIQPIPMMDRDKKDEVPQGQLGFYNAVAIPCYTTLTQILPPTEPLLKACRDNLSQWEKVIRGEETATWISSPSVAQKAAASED
High affinity cAMP-specific and IBMX-insensitive 3',5'-cyclic phosphodiesterase 8A, sequence (O60658 whole entry): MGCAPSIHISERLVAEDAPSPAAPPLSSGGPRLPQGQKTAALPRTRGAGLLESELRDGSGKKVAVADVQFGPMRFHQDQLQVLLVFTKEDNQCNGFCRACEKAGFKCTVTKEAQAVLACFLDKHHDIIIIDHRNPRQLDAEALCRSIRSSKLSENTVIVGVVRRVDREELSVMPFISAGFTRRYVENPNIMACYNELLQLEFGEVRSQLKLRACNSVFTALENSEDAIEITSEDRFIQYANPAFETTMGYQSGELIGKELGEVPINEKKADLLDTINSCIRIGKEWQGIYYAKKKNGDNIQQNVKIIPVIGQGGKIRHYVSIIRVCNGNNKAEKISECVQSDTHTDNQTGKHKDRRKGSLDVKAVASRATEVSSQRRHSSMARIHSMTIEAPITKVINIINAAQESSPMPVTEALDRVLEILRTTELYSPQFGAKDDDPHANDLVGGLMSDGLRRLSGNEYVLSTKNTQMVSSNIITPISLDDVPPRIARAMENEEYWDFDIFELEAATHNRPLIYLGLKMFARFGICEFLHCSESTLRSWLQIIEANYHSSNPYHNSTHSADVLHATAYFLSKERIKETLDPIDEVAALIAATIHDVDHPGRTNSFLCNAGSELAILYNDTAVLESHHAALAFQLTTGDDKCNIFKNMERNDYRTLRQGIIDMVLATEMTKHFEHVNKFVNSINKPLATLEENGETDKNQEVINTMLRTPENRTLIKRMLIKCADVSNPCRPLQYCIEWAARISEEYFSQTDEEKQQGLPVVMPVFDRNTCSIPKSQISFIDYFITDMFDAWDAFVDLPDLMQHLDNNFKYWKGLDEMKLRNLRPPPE

CCCc1nn(C)c2c(=O)[nH]c(-c3cc(S(=O)(=O)NCCCN4CCOCC4)ccc3OCC)nc12
IC50 [1]: 2.6 nM

CCCc1nn(C)c2c(=O)[nH]c(-c3cc(S(=O)(=O)NCCc4c[nH]c5ccccc45)ccc3OCC)nc12
IC50 [1]: 13 nM

CCCc1nn(C)c2c(=O)[nH]c(-c3cc(S(=O)(=O)NCCCN(C)C)ccc3OCC)nc12
IC50 [1]: 14 nM

CCCc1nn(C)c2c(=O)[nH]c(-c3cc(S(=O)(=O)NCCN4CCCCC4)ccc3OCC)nc12
IC50 [1]: 16 nM

CCCCCCNS(=O)(=O)c1ccc(OCC)c(-c2nc3c(CCC)nn(C)c3c(=O)[nH]2)c1
IC50 [1]: 12 nM

CCCc1nn(C)c2c(=O)[nH]c(-c3cc(S(=O)(=O)NCCN(CC)CC)ccc3OCC)nc12
IC50 [1]: 32 nM

CCCc1nn(C)c2c(=O)[nH]c(-c3cc(S(=O)(=O)N4CCN(C)CC4)ccc3OCC)nc12
logP [2]: 2.58
permeability ([3]; Caco-2): 37.9 ×10⁻⁶ cm/s
IC50 [4]: 22000 nM
AUC [5]: 305
Papp B→A [6]: 45.5 ×10⁻⁶ cm/s
pKa [7]: 4.86
fraction unbound [8]: 0.066
logD [9]: 2.69
metabolised [10]: 90%
IC50 [11]: 600 nM
fraction unbound [12]: 0.04

CCCc1nn(C)c2c(=O)[nH]c(-c3cc(S(=O)(=O)NCc4ccc(OC)c(F)c4)ccc3OCC)nc12
IC50 [1]: 3.3 nM

CCCCCCCNS(=O)(=O)c1ccc(OCC)c(-c2nc3c(CCC)nn(C)c3c(=O)[nH]2)c1
IC50 [1]: 3.9 nM

CCCc1nn(C)c2c(=O)[nH]c(-c3cc(S(=O)(=O)NCCCCCO)ccc3OCC)nc12
IC50 [1]: 1.7 nM

CCCc1nn(C)c2c(=O)[nH]c(-c3cc(S(=O)(=O)NCCCCCCO)ccc3OCC)nc12
logP [2]: 2.73
IC50 [13]: 5.2 nM
IC50 [1]: 1.5 nM
AUC(0-inf) [14]: 71 ng·h/mL
IC50 [15]: 1.5 nM
half-life [16]: 48 min
Papp A→B ([3]; Caco-2, read-out: permeability): 9.1 ×10⁻⁶ cm/s
IC50 [17]: 3800 nM
inhibition at 10 µM [18]: 56%
solubility [19]: 20 µM (≈ 9.83 µg/mL)
AUC(0-inf) [20]: 81.8 ng·h/mL
Cmax [21]: 221 ng/mL
solubility [22]: 10 µM (≈ 4.92 µg/mL)
IC50 [23]: 2000 nM
AUC(0-inf) [24]: 156 ng·h/mL
IC50 ([4]; read-out: IC50): > 10000 nM
IC50 [25]: 560 nM
AUC [26]: 69.4 ng·h/mL
AUC [27]: 134 ng·h/mL
IC50 [28]: 3700 nM
IC50 [29]: > 10000 nM
Tmax [30]: 30 min
CL/F [31]: 204 mL/min/kg
AUC [5]: 432
Tmax [32]: 4.98 min
Papp B→A [6]: 54.4 ×10⁻⁶ cm/s
Cmax [33]: 380 ng/mL
inhibition at 10 µM [34]: 50%
solubility [35]: 80 µM (≈ 39.3 µg/mL)
pKa [7]: 5.22
fraction unbound [8]: 0.023
logD [9]: 2.73
Vd/F [36]: 1.65 L/kg
Vd/F [37]: 76.8 L/kg
metabolised [10]: > 95%
IC50 [38]: > 10000 nM
IC50 [39]: 1400 nM
CL/F [40]: 1070 mL/min/kg
AUC [41]: 80 ng·h/mL
Cmax [42]: 105 ng/mL
efflux ratio [43]: 6
C0 [44]: 556 ng/mL
IC50 [11]: 62 nM
fraction unbound [12]: 0.023
solubility [45]: 20 µM (≈ 9.83 µg/mL)

CCCc1nn(C)c2c(=O)[nH]c(-c3cc(S(=O)(=O)NCCCO)ccc3OCC)nc12
IC50 [1]: 3.4 nM

CCCc1nn(C)c2c(=O)[nH]c(-c3cc(S(=O)(=O)NCCN4CCOCC4)ccc3OCC)nc12
IC50 [1]: 1.6 nM

CCCc1nn(C)c2c(=O)[nH]c(-c3cc(S(=O)(=O)NCCCCO)ccc3OCC)nc12
IC50 [1]: 1.9 nM
